Tests used:
[1] = test system: whole blood from donors; IFN-gamma response to CMV antigens; test: QFN CMV assay with four different non-reducing sugars; format: cell-based, human; conditions: for response to the CMV antigens (percentage increase in IFN-gamma IU/ml over the non-additive tube): 2 mg/ml final blood concentration, 5 donors, background subtracted
Description: For this experiment, four different non-reducing sugars were added to QFN CMV antigen tubes and a corresponding Nil tube. To reach a final blood concentration of 2 mg/ml, a corresponding solution of sucrose, trehalose, mannitol and raffinose in PBS was added to whole blood obtained from 5 donors. […] The assay was run in accordance with the QFN package insert which is an established assay. The x-axis (see FIG. 3) indicates the tested conditions. The background (value from Nil tubes with/without the addition of the respective sugar) was subtracted from the corresponding CMV tube and the percentage increase in the IFN-gamma value (IU/ml) over the non-additive tube calculated (y axis).

[2] = test system: whole blood IFN-gamma response to EBNA-1 from the Epstein-Barr virus; test: QuantiFERON assay measuring anti-EBV cellular immune responses (EBNA-1 peptides) plus/minus trehalose; format: cell-based
Description: Investigations using QuantiFERON technology to measure responses to the model antigen EBNA-1 from the Epstein-Barr virus were performed to assess increases in assay sensitivity induced by the addition of non-reducing sugars to the incubation mixture. Briefly, EBNA-1 peptides were added to a blood collection tube, plus/minus 3 concentrations of a trehalose solution (0.5, 1.0 or 2.0 mg/ml trehalose). QuantiFERON assay measuring anti-EBV cellular immune responses was run according to the manufacturer's instructions. The IFN-gamma response was determined and compared depending on the concentration of trehalose. […] A concentration of 2 mg/ml trehalose provided the best results in this test assay.

[3] = test system: whole blood from subjects with MTB infection; IFN-gamma response to Mycobacterium tuberculosis antigens ESAT-6 and CFP-10; test: QFN-TB antigen tubes manufactured with or without trehalose; format: cell-based, human; conditions: trehalose tube versus sugar free tube; 20 subjects with MTB infection; paired one-tailed t test, P=0.0005
[4] = test system: blood from healthy donors; CD8+ T cells, IFN-gamma response to Cytomegalovirus peptides; test: QFN-CMV assay with addition of trehalose; format: cell-based, human
Description: QuantiFERON (QFN) CMV is a CE registered assay monitoring T cell immune memory directed against antigens derived from the Cytomegalovirus. The QFN-CMV blood tubes contain peptides designed to specifically activate CD8+ T cells to produce interferon gamma (IFN-gamma). These tubes only contain peptide and heparin, with no addition of any sugar molecule.
This experiment aimed to investigate the effect on the IFN-gamma response when the non-reducing sugar, trehalose, was added to QFN-CMV tubes. 0, 1, 5 or 10 mg/ml of a trehalose (in water) solution was added to QFN-CMV blood collection tubes. 1 ml of blood from 17 healthy donors with a known anti-CMV T cell response was then added to each of the four tubes, and in addition a Nil tube and a Mitogen tube were run as controls. The QFN assay was then run according to the package insert. All values had the Nil value subtracted. IFN-gamma levels in IU/ml were normalized against the respective QFN-CMV+0 mg/ml trehalose (untreated control) to generate a ‘fold-change’ unit; to control for inter-donor variation in response magnitude. Healthy donors without a detectable anti-CMV immune response were included to control against non-specific IFN-gamma induction by trehalose.

## OC[C@H]1O[C@@](CO)(O[C@H]2O[C@H](CO)[C@@H](O)[C@H](O)[C@H]2O)[C@@H](O)[C@@H]1O [sucrose]
[1]
  response to the CMV antigens (percentage increase in IFN-gamma IU/ml over the non-additive tube): increased response

## OC[C@H]1O[C@H](OC[C@H]2O[C@H](O[C@]3(CO)O[C@H](CO)[C@@H](O)[C@@H]3O)[C@H](O)[C@@H](O)[C@@H]2O)[C@H](O)[C@@H](O)[C@H]1O [raffinose]
[1]
  response to the CMV antigens (percentage increase in IFN-gamma IU/ml over the non-additive tube): increased response

## OC[C@H]1O[C@H](O[C@H]2O[C@H](CO)[C@@H](O)[C@H](O)[C@H]2O)[C@H](O)[C@@H](O)[C@@H]1O [trehalose]
[2]; 0.5, 1.0 or 2.0 mg/ml trehalose, with increasing concentration
  IFN-gamma response: increase in IFN-gamma response
[2]; of 0.5, 1.0 and 2.0 mg/ml tested
  trehalose concentration providing the best results: 2 mg/mL
[3]
  quantitative response of the assay (IFN-gamma IU/ml, nil subtracted): significantly enhanced
[4]; 0, 1, 5 or 10 mg/ml trehalose, 17 healthy donors with known anti-CMV T cell response, Nil subtracted
  mean level of IFN-gamma (fold change versus matched untreated control): concentration-dependent increase
[4]; 5 and 10 mg/ml trehalose, Friedmans test with Dunns multiple comparisons test
  IFN-gamma fold change versus untreated control, significance: significant increase
[4]; trehalose added, data not shown
  background level of IFN-gamma in CMV-negative control donors: No significant increase
[1]
  response to the CMV antigens (percentage increase in IFN-gamma IU/ml over the non-additive tube): increased response
[1]; 2 mg/ml, order trehalose, mannitol, sucrose, raffinose
  rank of the increase among the four non-reducing sugars: highest increase

## OC[C@@H](O)[C@@H](O)[C@H](O)[C@H](O)CO [mannitol]
[1]
  response to the CMV antigens (percentage increase in IFN-gamma IU/ml over the non-additive tube): increased response

— patent US10564150B2, “Cell mediated immune response assay” (priority 2012, dated 2020)
